# From patent EP0976707A1, “CYCLOALKYL BENZYL ETHER COMPOUNDS” (Nissan Chemical Industries, Ltd., priority 1997, dated 1998)
# Like-named read-outs stand apart in the source and are kept apart here.
# Legend:
# Format in all cases: in vivo
# rice plant = assay: Phytotoxicity test under shallow planting conditions for rice plant (Test Example 4); settings: aerial part, three weeks after the treatment
# Text: [Test Example 4] Phytotoxicity test under shallow planting conditions for rice plant In a 1/5,000-are Wagner pot was filled alluvial soil, which was mixed with water introduced therein to establish submerged conditions at a water depth of 4 cm. Rice seedlings at 2.5 leaf stage were transplanted at a depth of 0.5 cm and the roots were exposed to the air. On the day when the transplantation was made, the compound of the present invention prepared according to one of Composition Examples was applied. Three weeks after the treatment, the live weight of the aerial part of the plant was measured and inhibition ratio (%) was obtained according to the following equation. Inhibition ratio (%) = (1 -(live weight of aerial part of treated plant)/(live weight of aerial part of non-treated plant)) x 100 [formula]
# Monochoria vaginalis [1] = assay: Herbicidal effect test under submerged conditions (Test Example 5); design: key: 0 indicating no influence; 5 indicating complete withering; settings: three weeks after the treatment, rating 0-5
# Text: (§1) [Test Example 5] Herbicidal effect test under submerged conditions
# (§2) In a 1/10,000-are Wagner pot was filled alluvial soil, which was mixed with water introduced therein to establish submerged conditions at a water depth of 4 cm. Respective seeds of Monochoria vaginalis, Rotala indica and Scirpus juncoides were sowed mixedly in the pot and then treated with the compound of the present invention prepared according to one of Composition Examples. Three weeks after the treatment, the herbicidal effect on the various weeds was examined.
# Rotala indica [2] = assay: as above; design: key: 0 indicating no influence; 5 indicating complete withering; settings: three weeks after the treatment, rating 0-5
# Text: as §1, §2
# Scirpus juncoides [3] = assay: as above; design: key: 0 indicating no influence; 5 indicating complete withering; settings: three weeks after the treatment, rating 0-5
# Text: as §1, §2
# Monochoria vaginalis [4] = assay: Herbicidal effect test under submerged conditions, inhibition ratio (Test Example 6); settings: Pontederia vaginalis, 504 h, read-out: inhibition ratio (%), C (Monochoria vaginalis)
# Text: (§3) [Test Example 6] Herbicidal effect test under submerged conditions
# (§4) In a 1/5,000-are Wagner pot was filled alluvial soil, which was mixed with water introduced therein to establish submerged conditions at a water depth of 4 cm. After seeds of Monochoria vaginalis and Scirpus juncoides were sowed mixedly in the pot, 2.5 leaf stage rice seedlings were transplanted at a depth of 2 cm. On the next day of transplantation of the rice, the compound of the present invention prepared according to one of Composition Examples was applied. Three weeks after the treatment, the live weights of aerial parts of each kind of the weeds and rice were measured and inhibition ratios (%) were obtained according to Test Example 4. In the tables, (E) indicates expected values obtained by the equation of Colby and (F) indicates found values. Left side values and right side values in the column of application rate for each active ingredient indicate corresponding dosages of compounds in the column of compound name.
# (§5) Synergistic herbicidal effect of herbicide mixtures will be explained as follows. That is, individual active compounds in many cases may be deficient in their herbicidal activity. In such a case, if the herbicidal activity of two active compounds in combination is higher than the simple sum of the activities of the compounds (expected activity), then this is called synergistic action. The expected activity from the stable combination of two herbicides, can be calculated as follows. (cf. Colby, S. R., Calculation of Synergistic and Antagonistic Reactions of Combination of Herbicides, Weed, vol. 15, pages 20-22 (1967)) E = α + β - ( α · β / 100) [formula] α : Inhibition ratio when herbicide A is applied in a rate of a kg/ha β : Inhibition ratio when herbicide B is applied in a rate of b kg/ha E : Inhibition ratio expected when herbicide A is applied in a rate of a kg/ha and herbicide B is applied in a rate of b kg/ha.
# Scirpus juncoides [5] = assay: as above; settings: Schoenoplectiella juncoides, 504 h, read-out: inhibition ratio (%), B (Scirpus juncoides)
# Text: as §3, §4, §5
# transplanted rice [6] = assay: as above; settings: live weight of aerial part, three weeks after the treatment
# Text: Herbicidal effect test under submerged conditions
# In a 1/5,000-are Wagner pot was filled alluvial soil, which was mixed with water introduced therein to establish submerged conditions at a water depth of 4 cm. After seeds of Monochoria vaginalis and Scirpus juncoides were sowed mixedly in the pot, 2.5 leaf stage rice seedlings were transplanted at a depth of 2 cm. On the next day of transplantation of the rice, the compound of the present invention prepared according to one of Composition Examples was applied. […] In the tables, (E) indicates expected values obtained by the equation of Colby and (F) indicates found values.
# The expected activity from the stable combination of two herbicides, can be calculated as follows.
# [7] = test system: Echinochloa crus-galli var. crus-galli; assay: Comparative test, pre-emergence treatment under submerged conditions (as Test Example 1); design: key: 0 indicating no influence; 5 indicating complete withering; settings: three weeks after the treatment, rating 0-5
# Text: (§6) [Test Example 1] Herbicidal effect test by pre-emergence treatment to weeds under submerged conditions
# (§7) In a 1/10,000-are Wagner pot was filled alluvial soil, which was mixed with water introduced therein to establish submerged conditions at a water depth of 4 cm. Respective seeds of Echinochloa crus-galli var. crus-galli, Monochoria vaginalis, Rotala indica and Scirpus juncoides were sowed mixedly in the pot and then 2.5 leaf stage rice seedlings were transplanted. The pot was placed in a greenhouse at 25 to 30°C to grow the plant. One day after the sowing, the compound of the present invention prepared according to one of Composition Examples was applied onto the water surface at a predetermined application rate. Three weeks after the treatment, the herbicidal effect on the rice plant and each kind of the weeds was examined. There was used five rating evaluation, with 0 indicating no influence and 5 indicating complete withering.
# (§8) [drawing 170] (diastreomer-(1) and (2)) involved in the claims of WO 97/02258 and the compound No. A-5 of the present invention were carried out in manners similar to that in test example 1 and 2.
# Monochoria vaginalis [8] = assay: as above; design: key: 0 indicating no influence; 5 indicating complete withering; settings: three weeks after the treatment, rating 0-5
# Text: as §6, §7, §8
# Rotala indica [9] = assay: as above; design: key: 0 indicating no influence; 5 indicating complete withering; settings: three weeks after the treatment, rating 0-5
# Text: as §6, §7, §8
# Scirpus juncoides [10] = assay: as above; design: key: 0 indicating no influence; 5 indicating complete withering; settings: three weeks after the treatment, rating 0-5
# Text: as §6, §7, §8
# transplanted rice [11] = assay: as above; design: key: 0 indicating no influence; 5 indicating complete withering; settings: pre-emergence treatment to weeds, three weeks after the treatment, rating 0-5
# Text: as §6, §7, §8
# [12] = test system: Echinochloa crus-galli var. crus-galli; assay: Comparative test, post-emergence treatment under submerged conditions (as Test Example 2); design: key: 0 indicating no influence; 5 indicating complete withering; settings: three weeks after the treatment, rating 0-5
# Text: (§9) [Test Example 2] Herbicidal effect test by post-emergence treatment to weeds under submerged conditions
# as §7, with “When Echinochloa crus-galli var. crus-galli, Monochoria vaginalis, Rotala indica and Scirpus juncoides reached 1 to 2 leaf stage and” for “One day after”, “rice plant reached 4 leaf stage,” for “sowing,”, “on” for “on the rice plant and”, “examined in accordance” for “examined. There was used five rating evaluation,”, “the criteria of judgment in Test Example 1.” for “0 indicating no influence and 5 indicating complete withering.”
# as §8
# Monochoria vaginalis [13] = assay: as above; design: key: 0 indicating no influence; 5 indicating complete withering; settings: three weeks after the treatment, rating 0-5
# Text: as §9
# as §7, with “When Echinochloa crus-galli var. crus-galli, Monochoria vaginalis, Rotala indica and Scirpus juncoides reached 1 to 2 leaf stage and” for “One day after”, “rice plant reached 4 leaf stage,” for “sowing,”, “on” for “on the rice plant and”, “examined in accordance” for “examined. There was used five rating evaluation,”, “the criteria of judgment in Test Example 1.” for “0 indicating no influence and 5 indicating complete withering.”
# as §8
# Scirpus juncoides [14] = assay: as above; design: key: 0 indicating no influence; 5 indicating complete withering; settings: three weeks after the treatment, rating 0-5
# Text: as §9
# as §7, with “When Echinochloa crus-galli var. crus-galli, Monochoria vaginalis, Rotala indica and Scirpus juncoides reached 1 to 2 leaf stage and” for “One day after”, “rice plant reached 4 leaf stage,” for “sowing,”, “on” for “on the rice plant and”, “examined in accordance” for “examined. There was used five rating evaluation,”, “the criteria of judgment in Test Example 1.” for “0 indicating no influence and 5 indicating complete withering.”
# as §8
# Rotala indica [15] = assay: as above; settings: three weeks after the treatment, rating 0-5
# Text: as §9
# as §7, with “When Echinochloa crus-galli var. crus-galli, Monochoria vaginalis, Rotala indica and Scirpus juncoides reached 1 to 2 leaf stage and” for “One day after”, “rice plant reached 4 leaf stage,” for “sowing,”, “on” for “on the rice plant and”, “examined in accordance” for “examined. There was used five rating evaluation,”, “the criteria of judgment in Test Example 1.” for “0 indicating no influence and 5 indicating complete withering.”
# as §8
# [16] = dosage 25 g/ha, live weight of aerial part, three weeks after the treatment
# [17] = dosage 2 g/ha, live weight of aerial part, three weeks after the treatment
# [18] = dosage 4 g/ha, live weight of aerial part, three weeks after the treatment
structure (smiles),measurement,setting,value
"C=C(C)[C@@H]1C[C@@H]2O[C@]2(C)[C@H](OCc2ccccc2F)C1 [A-5, (1S, 2R, 4S, 6S)-2-(2-fluorobenzyloxy)-4-isopropenyl-1-methyl-7-oxabicyclo[4.1.0]heptane]",the ratio of live weight to the non-treated area (%),rice plant; dosage 125 g/ha,86%
same,the ratio of live weight to the non-treated area (%),rice plant; dosage 250 g/ha,67%
same,"herbicidal effect, C (Monochoria vaginalis)",Monochoria vaginalis [1]; dosage 125 g/ha,3
same,"herbicidal effect, C (Monochoria vaginalis)",Monochoria vaginalis [1]; dosage 250 g/ha,5
same,"herbicidal effect, C (Monochoria vaginalis)",Monochoria vaginalis [1]; dosage 500 g/ha,5
same,"herbicidal effect, D (Rotala indica)",Rotala indica [2]; dosage 125 g/ha,2
same,"herbicidal effect, D (Rotala indica)",Rotala indica [2]; dosage 250 g/ha,4
same,"herbicidal effect, D (Rotala indica)",Rotala indica [2]; dosage 500 g/ha,5
same,"herbicidal effect, B (Scirpus juncoides)",Scirpus juncoides [3]; dosage 125 g/ha,4
same,"herbicidal effect, B (Scirpus juncoides)",Scirpus juncoides [3]; dosage 250 g/ha,5
same,"herbicidal effect, B (Scirpus juncoides)",Scirpus juncoides [3]; dosage 500 g/ha,5
same,pest or weed control at 25 g/ha,Monochoria vaginalis [4]; [16],59%
same,pest or weed control at 25 g/ha,Scirpus juncoides [5]; [16],52%
same,"inhibition ratio (%), a (transplanted rice)",transplanted rice [6]; dosage 25 g/ha,0%
same,"herbicidal effect, A (Echinochloa crus-galli var. crus-galli)",[7]; dosage 12.5 g/ha,5
same,"herbicidal effect, A (Echinochloa crus-galli var. crus-galli)",[7]; dosage 50 g/ha,5
same,"herbicidal effect, A (Echinochloa crus-galli var. crus-galli)",[7]; dosage 200 g/ha,5
same,"herbicidal effect, C (Monochoria vaginalis)",Monochoria vaginalis [8]; dosage 12.5 g/ha,2
same,"herbicidal effect, C (Monochoria vaginalis)",Monochoria vaginalis [8]; dosage 50 g/ha,5
same,"herbicidal effect, C (Monochoria vaginalis)",Monochoria vaginalis [8]; dosage 200 g/ha,5
same,"herbicidal effect, D (Rotala indica)",Rotala indica [9]; dosage 12.5 g/ha,2
same,"herbicidal effect, D (Rotala indica)",Rotala indica [9]; dosage 50 g/ha,5
same,"herbicidal effect, D (Rotala indica)",Rotala indica [9]; dosage 200 g/ha,5
same,"herbicidal effect, B (Scirpus juncoides)",Scirpus juncoides [10]; dosage 12.5 g/ha,2
same,"herbicidal effect, B (Scirpus juncoides)",Scirpus juncoides [10]; dosage 50 g/ha,3
same,"herbicidal effect, B (Scirpus juncoides)",Scirpus juncoides [10]; dosage 200 g/ha,5
same,"herbicidal effect, a (transplanted rice)",transplanted rice [11]; dosage 12.5 g/ha,0
same,"herbicidal effect, a (transplanted rice)",transplanted rice [11]; dosage 50 g/ha,0
same,"herbicidal effect, a (transplanted rice)",transplanted rice [11]; dosage 200 g/ha,0
same,"herbicidal effect, A (Echinochloa crus-galli var. crus-galli)",[12]; dosage 12.5 g/ha,1
same,"herbicidal effect, A (Echinochloa crus-galli var. crus-galli)",[12]; dosage 50 g/ha,5
same,"herbicidal effect, A (Echinochloa crus-galli var. crus-galli)",[12]; dosage 200 g/ha,5
same,"herbicidal effect, C (Monochoria vaginalis)",Monochoria vaginalis [13]; dosage 12.5 g/ha,1
same,"herbicidal effect, C (Monochoria vaginalis)",Monochoria vaginalis [13]; dosage 50 g/ha,4
same,"herbicidal effect, C (Monochoria vaginalis)",Monochoria vaginalis [13]; dosage 200 g/ha,5
same,"herbicidal effect, B (Scirpus juncoides)",Scirpus juncoides [14]; dosage 12.5 g/ha,1
same,"herbicidal effect, B (Scirpus juncoides)",Scirpus juncoides [14]; dosage 50 g/ha,3
same,"herbicidal effect, B (Scirpus juncoides)",Scirpus juncoides [14]; dosage 200 g/ha,5
same,"herbicidal effect, D (Rotala indica)",Rotala indica [15]; dosage 12.5 g/ha,1
same,"herbicidal effect, D (Rotala indica)",Rotala indica [15]; dosage 50 g/ha,3
same,"herbicidal effect, D (Rotala indica)",Rotala indica [15]; dosage 200 g/ha,4
"Cc1ccc(NC(=O)NC(C)(C)c2ccccc2)cc1 [R-1, daimuron, reference compound]","herbicidal effect, C (Monochoria vaginalis)",Monochoria vaginalis [1]; dosage 500 g/ha,0
same,"herbicidal effect, D (Rotala indica)",Rotala indica [2]; dosage 500 g/ha,1
same,"herbicidal effect, B (Scirpus juncoides)",Scirpus juncoides [3]; dosage 500 g/ha,5
"CCOC(=O)c1cnn(C)c1S(=O)(=O)NC(=O)Nc1nc(OC)cc(OC)n1 [R-2, pyrazosulfuron ethyl]",pest or weed control at 2 g/ha,Monochoria vaginalis [4]; [17],80%
same,pest or weed control at 2 g/ha,Scirpus juncoides [5]; [17],71%
same,"inhibition ratio (%), a (transplanted rice)",transplanted rice [6]; dosage 2 g/ha,0%
"COC(=O)c1c(Cl)nn(C)c1S(=O)(=O)NC(=O)Nc1nc(OC)cc(OC)n1 [R-3, halosulfuron methyl]",pest or weed control at 4 g/ha,Monochoria vaginalis [4],71%
same,pest or weed control at 4 g/ha,Scirpus juncoides [5],66%
same,"inhibition ratio (%), a (transplanted rice)",transplanted rice [6]; dosage 4 g/ha,0%
"COc1cc(OC)nc(NC(=O)NS(=O)(=O)c2c(Cl)nc3ccccn23)n1 [R-4, imazosulfuron]",pest or weed control at 4 g/ha,Monochoria vaginalis [4]; [18],65%
same,pest or weed control at 4 g/ha,Scirpus juncoides [5]; [18],60%
